Experimental data reported in the NIST ThermoML archive (doi:10.1021/je050003x).

Experiment: cn = amount concentration of the nth substance listed, in mol/dm3
Conditions: 101.3 kPa, Liquid, Open capillary

[Cl-].[Cl-].[Cl-].[Cr+3] [chromium chloride] + O
binary diffusion coefficient [m2/s]
Conditions	c1 = 0.005	c1 = 0.008	c1 = 0.01	c1 = 0.02	c1 = 0.03	c1 = 0.05
298.15 K	1.33e-09	1.2e-09	1.17e-09	1.1e-09	1.06e-09	1.03e-09
303.15 K	1.85e-09	1.33e-09	1.31e-09	1.26e-09	1.2e-09	1.17e-09
